Consider four compounds from patent US8329735B2, “Tetrazole compounds which selectively modulate the CB2 receptor” (Boehringer Ingelheim International GmbH, priority 2010, dated 2012).

The subject of data set [1] is Salmonella bacterial strains TA98 and TA100. Briefly: Ames mutagenicity assay: bacteria reverse mutation screening assay. Type of data set: cell-based. Particulars: TA98 and TA100, presence or absence of S9. The protocol: The Ames ^(1) Salmonella bacterial strains used in the abbreviated screening assay ^(2) are TA98 and TA100. Actively growing (log phase) bacteria are incubated with test compound and trace amounts of histidine in the presence or absence of S9 for 48 hours on minimal agar plates. Test compound is dissolved in DMSO to a final concentration of 100 mg/ml. The stock is serially diluted to yield concentrations of 100, 50, 25 12.5 and 6.3 mg/ml. Fifty microliters of dosing solution is combined with top agar and buffer (or S9 mix) and poured on duplicate plates to yield effective doses of 5000, 2500, 1250, 625 and 313 μg/plate. Positive and negative controls plates are included. Formation of colonies after 48 hr incubation at 37° C. is an indication of genetic reversion, either arising spontaneously or caused by the test compound. The average number of spontaneous colonies growing on control plates is compared to the number of colonies on test plates. A fold increase of 2-3× over background is generally considered a positive response for mutagenicity. • 1. Maron, D. M. and Ames, B. N. (1983). “Revised Methods for the Salmonella Mutagenicity Test”. Mutat. Res. 113, 173-215. • 2. D. A. Burke, D. J. Wedd, and B. Burlinson (1996). “Use of the Miniscreen assay to screen novel compounds for bacterial mutagenicity in the pharmaceutical industry”. Mutagenesis 11: 201-205.
(The Ames test uses bacterial strains that need an amino acid and regain growth without it when mutated back.)

For data set [2], the target named is T1, human CB2R (Homo sapiens, UniProt P34972).
T1 construct: host or cells: CHO cells
Briefly: CB2R mediated modulation of cAMP synthesis. It is filed as cell-based. As to the method: Compounds of the invention are evaluated for their CB2 agonist or inverse agonistic activity in accordance with the following experimental method.
(§1) CHO cells expressing human CB2R (Euroscreen) are plated at a density of 5000 cells per well in 384 well plates and incubated overnight at 37° C. After removing the media, the cells are treated with test compounds diluted in stimulation buffer containing 1 mM IBMX, 0.25% BSA and 10 uM Forskolin. The assay is incubated for 30 minutes at 37° C. Cells are lysed and the cAMP concentration is measured using DiscoverX—XS cAMP kit, following the manufacturer's protocol. In this setting, agonists will decrease forskolin induced production of cAMP while inverse agonists will further increase forskolin induced production of cAMP. EC50 of agonists are calculated as follows. The maximal amount of cAMP produced by forskolin compared to the level of cAMP inhibited by 1 uM CP55940 is defined as 100%. The EC50 value of each test compound is determined as the concentration at which 50% of the forskolin-stimulated cAMP synthesis is inhibited. Data is analyzed using a four-parameter logistic model. (Model 205 of XLfit 4.0).

For data set [3], the target named is T2, human CB1R (Homo sapiens, UniProt P21554).
T2 construct: host or cells: CHO cells
As to the kind of experiment: CB1R mediated modulation of cAMP synthesis. It is filed as cell-based. Particulars: CHO cells expressing human CB1R, forskolin-stimulated cAMP. As to the method: Compounds of the invention are evaluated for their CB1 agonist or inverse agonistic activity in accordance with the following experimental method.
as §1, with “CB1R” for “CB2R”

Data set [4] in a line: Aqueous (equilibrium) solubility assay. Particulars: aqueous buffer, thermodynamic from solid, 48 hrs equilibrium. It is filed as physicochemical. As to the method: The equilibrium solubility of compounds is determined in pH 2, 4.5, 6.8 buffers. Prior to solubility measurement, the crystalline/amorphous characteristics of the sample are determined by observing the powder form under polarized light microscope. Solubility is only measured when compound is crystalline.
Approximately 2 mg of compound are weighed out into a vial and 1-2 ml of buffer are added into the vial (pHs 2 & 4.5, use 1 ml and for pHs 6.8 and 7.4 use 2 ml of buffer). The vial is rotated for 48 hrs protected from light. After 48 hrs, the sample is transferred into an eppendorf tube and centrifuged for 10 minutes at 14,000 RPM, if the supernatant is not clear, it is filtered (PVDF filter). The clear supernatant is diluted if necessary, before analyzing via HPLC. The final pH of the supernatant or the filtrate is measured and reported. The external calibration curve is used to determine the solubility value. The percentage of extraneous peaks relative to the parent peak is monitored in the standard solution as well as the solubility sample. Preferred compounds of the invention will have a solubility of >100 μg/ml.

The nature of data set [5]: Human microsomal stability assay. It is filed as in vitro ADME. As to conditions: human liver microsomes 1 mg protein/ml, 1 uM compound, pH 7.4. As to the method:
The double time point high throughput screen for human liver microsomal metabolic stability is used to measure the in vitro metabolism of test compounds by human liver microsomal enzymes. The data collected are analyzed to calculate a half-life (t½, min) and clearance (expressed as percent hepatic blood flow, % QH) for test compounds. The assay is performed in 50 mM potassium phosphate buffer, pH 7.4 and 2.5 mM NADPH. Test samples are dissolved in DMSO and acetonitrile for a final assay concentration of 1 uM. Human liver microsomes are diluted in assay buffer to a final assay concentration of 1 mg protein/ml. Compound solution and microsome suspension are added to assay buffer for a final incubation volume of 350 ul. The preparation is incubated for 5 min in a 37° C. water bath. The reaction is started by the addition of NADPH. Volumes of 80 ul are removed from the incubation mix at 0, 5, and 30 min after the start of the reaction and added to 160 ul acetonitrile. The supernatant is transferred to 0.25 mm glass fiber filter plates and centrifuged for 5 min at 3000 rpm. Injection volumes of 10 ul are typically added to HPLC columns with formic acid in water or acetonitrile at a flow rate of 0.3 ml/min. Percent loss of parent compound is calculated from the area under each time point to determine the half-life and clearance. Preferred compounds of the invention will have a human liver microsomal stability of <25% QH.

Setting [6] is: pH 4.5 buffer, read-out: solubility at pH 4.5.
Where [7] appears, read: pH 6.8 buffer, read-out: solubility at pH 6.8.

In brackets after ≈: the same amount, converted by molar mass. Like-named read-outs stand apart in the source and are kept apart here.

T2 sequence (P21554 whole entry): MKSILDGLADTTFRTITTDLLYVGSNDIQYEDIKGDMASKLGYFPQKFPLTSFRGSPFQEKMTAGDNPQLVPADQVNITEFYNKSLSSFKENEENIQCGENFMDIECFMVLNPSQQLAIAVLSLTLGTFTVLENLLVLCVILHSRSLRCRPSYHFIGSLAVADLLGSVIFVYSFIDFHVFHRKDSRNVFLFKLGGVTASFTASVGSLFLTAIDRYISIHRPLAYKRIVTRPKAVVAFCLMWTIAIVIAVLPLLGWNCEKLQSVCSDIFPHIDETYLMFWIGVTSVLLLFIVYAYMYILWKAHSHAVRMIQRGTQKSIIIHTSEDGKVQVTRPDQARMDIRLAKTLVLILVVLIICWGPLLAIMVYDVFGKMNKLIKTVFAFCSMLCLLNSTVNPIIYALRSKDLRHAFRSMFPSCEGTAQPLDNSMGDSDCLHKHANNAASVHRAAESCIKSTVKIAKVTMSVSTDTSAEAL
T1 sequence (P34972 whole entry): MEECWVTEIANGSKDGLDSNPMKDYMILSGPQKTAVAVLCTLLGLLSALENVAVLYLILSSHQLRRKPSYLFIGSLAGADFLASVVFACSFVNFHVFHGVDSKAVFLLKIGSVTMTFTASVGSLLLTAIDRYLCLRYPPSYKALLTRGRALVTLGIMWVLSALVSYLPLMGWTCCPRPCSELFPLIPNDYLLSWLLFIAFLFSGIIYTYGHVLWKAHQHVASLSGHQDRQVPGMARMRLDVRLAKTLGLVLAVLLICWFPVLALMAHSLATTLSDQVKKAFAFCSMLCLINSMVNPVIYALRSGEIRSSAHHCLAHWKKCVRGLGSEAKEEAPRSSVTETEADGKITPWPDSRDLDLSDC

Turning to `CC(C)(C)n1nnc(NC(=O)C(C)(C)S(=O)(=O)C2CCOCC2)n1` [Table II compound 1], the Ames entry in data set [1] was “negative”. The EC50 in data set [2] was 0.021 µM; in data set [3] (CB1 CAMP EC50, Table XI), above 50 µM; in data set [3] (CB1 EC50, Table II), above 20 µM. In addition, the solubility at 48 h in data set [4] (setting [6]) was above 2120 µg/mL; in data set [4] (setting [7]) it was above 1750 µg/mL. The “HLM clearance (percent hepatic blood flow)” value in data set [5] is reported as below 30.10 QH %.
On to `CC(C)(C)n1nnc(NC(=O)C(C)(C)S(=O)(=O)CC2CCOCC2)n1` [Table II compound 2], for which the Ames result in data set [1] is listed as “negative”. For the same compound, the EC50 in data set [2] was 0.05 µM; in data set [3] (CB1 CAMP EC50, Table XI) it was above 50 µM; in data set [3] (CB1 EC50, Table II) it was above 50 µM. The values for the solubility at 48 h in data set [4] (setting [6]) and in data set [4] (setting [7]) were 391 µg/mL (≈ 1050 µM) and 353 µg/mL (≈ 945 µM), respectively. Moreover, the “HLM clearance (percent hepatic blood flow)” value in data set [5] was below 30.10 QH %.
As for `CC[C@H](C)S(=O)(=O)C(C)(C)C(=O)Nc1nnn(C(C)(C)C)n1` [Table II compound 5], the Ames entry in data set [1] is on record as “negative”. The EC50 was 0.101 µM in data set [2] (Table II, CHO cells expressing human CB2R, forskolin-stimulated cAMP, read-out: CB2 EC50); above 50 µM in data set [3] (Table II, read-out: CB1 EC50); above 50 µM in data set [3] (Table XI, read-out: CB1 CAMP EC50). The figures for the solubility at 48 h in data set [4] (setting [6]) and in data set [4] (setting [7]) were 1210 µg/mL (≈ 3640 µM) and 1150 µg/mL (≈ 3470 µM), respectively. For the same compound, the “HLM clearance (percent hepatic blood flow)” value in data set [5] was below 30.10 QH %.
As to `CC(C)(C)n1nnc(NC(=O)C(C)(C)S(=O)(=O)c2ccc(F)cc2)n1` [Table II compound 6], the Ames entry in data set [1] is given as “negative”. Moreover, the EC50 worked out at 0.022 µM in data set [2]; 39.5 µM in data set [3] (CB1 CAMP EC50, Table XI); 39.5 µM in data set [3] (CB1 EC50, Table II). Also, the solubility at 48 h in data set [4] (setting [6]) was 133 µg/mL (≈ 360 µM); in data set [4] (setting [7]), 122 µg/mL (≈ 330 µM). For the same compound, in data set [5], the “HLM clearance (percent hepatic blood flow)” value was below 30 QH %.

The term EC50 denotes the midpoint of the concentration-response curve. One may read the solubility as the concentration that dissolves in the medium under given conditions.
